In test [1] the test system is normal human prostate epithelial cells. Put plainly: SU-ECM invasion assay, normal human prostate epithelial cells. The test is classed as cell-based. The note with it: 10% FCS, 100 ng per ml PHSRN, FIG. 6B. The method, then: (§1) Adult Strongylocentrotus purpuratus sea urchins were obtained from Pacific BioMarine, and their embryos were cultured to the early pluteus stage in artificial sea water at 15° C. SU-ECM were prepared from them by treatment with nonionic detergent and strerilized by dilution in the appropriate media. […]
(§2) Invasion assays were coded and scored blindly by microscopic examination under phase contrast at 200- and 400-fold magnification. Each cell contacting an SU-ECM was scored for its position relative to the exterior or interior surfaces. […] The minimum viability of the cells in each assay was always ascertained at the time of assay by determining the fraction of spread, adherent cells on the bottom of each well scored.
(§3) An invasion frequency is defined as the fraction of cells in contact with basement membranes which were located in their interiors at the time of assay. […] Invasion frequencies were determined multiple times for each cell type assayed. For each type of cell assayed the mean and standard deviation of the invasion frequencies were calculated. […]

In test [2] the test system is normal human mammary epithelial cells. Put plainly: SU-ECM invasion assay, normal human mammary epithelial cells. The test is classed as cell-based. The note with it: 10% FCS, 100 ng per ml PHSRN, FIG. 5B. The method, then:
as §1, §2, §3

For test [3], the system named is MatLyLu (MLL) tumors. Kind of test: MLL prostate tumor growth and metastasis in rats, treatment begun after 24 hours (Example 13). The test is classed as in vivo, Copenhagen rats. On the procedure: In the first part of this example, 20 Copenhagen rats were injected with 500,000 MatLyuLu (MLL) cells subcutaneously in the thigh. To more closely approximate a real clinical situation, PHSCN (SEQ ID NO:86) peptide treatment of 10 of these rats was initiated after 24 hours, instead of immediately. The 10 treated rats (MLL/PHSCN (SEQ ID NO:86)) received a total of 5 i.v. injections of 1 mg of the PHSCN (SEQ ID NO:86) peptide through the tail vein over two weeks. Tumor sizes were measured with calipers on day 14, and the tumors in the untreated rats were removed. Since the injected tumors in the MLL/PHSCN (SEQ ID NO:86) rats were still small, they were retained in the rats for another 7 to 9 days following the last PHSCN (SEQ ID NO:86) injection. At this time, their sizes were all greater than 2 cm, and they were also removed.
In the second part of this example, the MLL/PHSCN (SEQ ID NO:86) rats received 2 more i.v. doses of the PHSCN (SEQ ID NO:86) peptide prior to sacrifice. Ten days after the sizes of the injected primary tumors were determined, all the rats in the two groups (MLL only and MLL/PHSCN (SEQ ID NO:86)) were sacrificed, and the number of lung metastases was determined at 7.5-fold magnification.
The 20 rats described in parts one and two of this example were also examined for metastatic tissues in […]. All of these metastases were dissected and weighed. FIG. 10C plots the mean masses of intraperitoneal metastases (grams) for the two groups of 10 rats. […] This may be due to the anti-angiogenic effect of the PHSCN (SEQ ID NO:86) peptide, as described in part one of this example. In this manner, the PHSCN (SEQ ID NO:86) peptide maybe an effective anti-metastatic, growth-inhibiting chemotherapeutic agent for use in the treatment of cancer.

Test [4] relates to MatLyLu (MLL) tumors. Put plainly: MLL prostate tumor growth and metastasis in rats, treatment begun with cell injection (Example 12). The test is classed as in vivo, Copenhagen rats. The method, then: In the first part of this example, four Copenhagen rats were injected with 500,000 MatLyLu (MLL) cells subcutaneously in the thigh. Two of these rats also received 1 mg of the PHSCN (SEQ ID NO:86) peptide along with the injected MLL cells, and thereafter received 1 mg of the PHSCN (SEQ ID NO:86) peptide injected in their tail vein three time per week for two weeks. The other two injected rats were left untreated. Tumor sizes were measured with calipers on day 14, and the tumors in the untreated rats were removed. […] It is possible that the ability of the PHSCN (SEQ ID NO:86) peptide to slow tumor growth is due to its inhibition of tumor invasion by normal endothelial cells, an anti-angiogenic effect.
Two weeks after the size of the tumors were measured, the rats were sacrificed and the mean number of lung metastases was determined at 10-fold magnification. The mean number of lung metastases in the untreated mice (MLL only) was nearly 35 in spite of the fact that the initial prostate tumors had been removed when their size was measured. The mean number of lung metastases in the treated mice (MLL +PHSCN (SEQ ID NO:86)) was less than 5, even though the initial prostate tumors were never removed because they were too small. […] In this manner, the PHSCN (SEQ ID NO:86) peptide provides effective in vivo therapy for cancer by preventing the lethal effects of tumor cell growth and metastasis.

Test [5] can be described thus: Clotting of peptide-treated blood in vivo. The note with it: in vivo observation. From the text:
In addition to using the PHSRN (SEQ ID NO:1) antagonists described above as anti-invasion chemotherapeutics, it is also contemplated that these antagonists be used as anti-thrombotics.

Turning to Pro-His-Ser-Cys-Asn (PHSCN), the “inhibition of PHSRN-induced invasion of SU-ECM” value in test [1] (higher concentrations) is given as “almost complete inhibition”; in test [1] (low concentrations), “substantial inhibitory affect”; in test [2] (higher concentrations), “almost complete inhibition”; in test [2] (low concentrations), “substantial inhibitory affect”. Further, the tumor size result in the test on MatLyLu (MLL) tumors [3] (7 to 9 days following the last PHSCN injection) is recorded as “greater than 2 cm”. For the same substance, the “mean numbers of lung metastases” value with MatLyLu (MLL) tumors [3] (compared to untreated rats, 7.5-fold magnification, ten days after tumor sizing, FIG. 10B) was “significant reduction”. The “mean masses of intraperitoneal (lymphatic) metastases” value in the test on MatLyLu (MLL) tumors [3] (compared to untreated rats, FIG. 10C) was “significant reduction”. Moreover, the “growth of rat prostate cancer tumors (tumor size, calipers)” value in the test on MatLyLu (MLL) tumors [3] (day 14, 5 i.v. injections of 1 mg over two weeks, started after 24 hours, FIG. 10A) is recorded as “substantially slows the growth”. In addition, the “growth of injected MLL tumors (tumor size, calipers)” value in the test on MatLyLu (MLL) tumors [4] (day 14, 1 mg with cells, then 1 mg tail vein three times per week for two weeks, FIG. 9A) is listed as “significantly slows the growth”. The “mean number of lung metastases” value in the test with MatLyLu (MLL) tumors [4] (two weeks after tumor measurement, 10-fold magnification, primary tumors not removed, FIG. 9B) is given as “less than 5”. For the same substance, the “clotting of peptide-treated blood” value in test [5] is reported as “clot very slowly”.

The values above are taken from patent US6472369B1, “Anticancer compounds and methods” (The Regents of the University of Michigan, priority 1996, dated 2002).
